BindingDB's records for patent US10487086 (Bristol Myers Squibb, 2019)
pKi: −log10 of the molar value.

Molecular target: Coagulation factor XI (Homo sapiens, UniProt P03951)
Assay: Factor XIa assay
Method: The effectiveness of compounds of the present invention as inhibitors of the coagulation Factors XIa, VIIa, IXa, Xa, XIIa, plasma kallikrein or thrombin, can be determined using a relevant purified serine protease, respectively, and an appropriate synthetic substrate. The rate of hydrolysis of the chromogenic or fluorogenic substrate by the relevant serine protease was measured both in the absence and presence of compounds of the present invention. […] A decrease in the rate of absorbance or fluorescence change in the presence of inhibitor is indicative of enzyme inhibition. Such methods are known to one skilled in the art. […] Determinations were made using purified human Factor XIa at a final concentration of 25-200 pM (Haematologic Technologies) and the synthetic substrate S-2366 (pyroGlu-Pro-Arg-pNA; CHROMOGENIX or AnaSpec) at a concentration of 0.0002-0.001 M.

Sequence of Coagulation factor XI (P03951 19-387 limits assumed): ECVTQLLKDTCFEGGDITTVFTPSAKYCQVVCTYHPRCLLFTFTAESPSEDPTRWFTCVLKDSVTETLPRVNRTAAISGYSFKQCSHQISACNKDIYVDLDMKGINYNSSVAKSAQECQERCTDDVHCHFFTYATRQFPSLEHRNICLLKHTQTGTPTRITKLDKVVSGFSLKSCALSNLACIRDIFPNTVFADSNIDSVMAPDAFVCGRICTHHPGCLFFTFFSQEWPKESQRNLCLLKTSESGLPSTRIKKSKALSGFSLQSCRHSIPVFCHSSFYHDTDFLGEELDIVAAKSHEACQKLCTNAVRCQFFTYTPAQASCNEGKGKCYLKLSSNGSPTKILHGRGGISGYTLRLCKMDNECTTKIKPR
Sequence of Coagulation factor XI (P03951 388-625 limits assumed): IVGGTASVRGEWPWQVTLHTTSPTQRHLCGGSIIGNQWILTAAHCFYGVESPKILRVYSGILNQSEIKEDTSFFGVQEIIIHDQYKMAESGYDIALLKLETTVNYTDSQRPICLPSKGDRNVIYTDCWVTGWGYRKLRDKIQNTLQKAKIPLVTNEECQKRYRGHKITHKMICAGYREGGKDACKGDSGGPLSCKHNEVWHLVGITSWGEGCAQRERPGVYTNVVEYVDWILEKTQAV

COC(=O)Nc1ccc2c(c1)N[C@@H](C(=O)O)CCCC[C@H](NC(=O)/C=C/c1cc(Cl)ccc1-n1cnnn1)c1nc-2c[nH]1 [US10487086, Example I-84]
pKi: 6.24
